From patent US10662205B2, “Cyclic boronic acid ester derivatives and therapeutic uses thereof” (priority 2014, dated 2020)
Like-named read-outs stand apart in the source and are kept apart here.

How the values were obtained:
KP1005 (CTX-M-14) [1] = test: Aztreonam potentiation (MPC@4); type: cell-based; settings: aztreonam 4 μg/mL
KP1009 (CTX-M-15) [2] = test: Aztreonam potentiation (MPC@4); type: cell-based; settings: aztreonam 4 μg/mL
ec308 (SHV-5) [3] = test: Aztreonam potentiation (MPC@4); type: cell-based; settings: aztreonam 4 μg/mL
KP1010 (SHV-12) [4] = test: Aztreonam potentiation (MPC@4); type: cell-based; settings: aztreonam 4 μg/mL
ec302 (TEM-10) [5] = test: Aztreonam potentiation (MPC@4); type: cell-based; settings: aztreonam 4 μg/mL
KP1004 (KPC-2) [6] = test: Aztreonam potentiation (MPC@4); type: cell-based; settings: aztreonam 4 μg/mL
ECL1002 [7] = test: Aztreonam potentiation (MPC@4); type: cell-based; settings: aztreonam 4 μg/mL
EC1010 (CMY-6) [8] = test: Aztreonam potentiation (MPC@4); type: cell-based; settings: aztreonam 4 μg/mL
KP1005 (CTX-M-14) [9] = test: Tigemonam potentiation (MPC@4); type: cell-based; settings: tigemonam 4 μg/mL
KP1009 (CTX-M-15) [10] = test: Tigemonam potentiation (MPC@4); type: cell-based
ec308 (SHV-5) [11] = test: Tigemonam potentiation (MPC@4); type: cell-based; settings: tigemonam 4 μg/mL
KP1010 (SHV-12) [12] = test: Tigemonam potentiation (MPC@4); type: cell-based
ec302 (TEM-10) [13] = test: Tigemonam potentiation (MPC@4); type: cell-based; settings: tigemonam 4 μg/mL
ECL1002 [14] = test: Tigemonam potentiation (MPC@4); type: cell-based; settings: tigemonam 4 μg/mL
EC1010 (CMY-6) [15] = test: Tigemonam potentiation (MPC@4); type: cell-based; settings: tigemonam 4 μg/mL; EC1010, CMY-6
CTX-M-14 = CTX-M-14 (Escherichia coli, UniProt Q9L5C7); test: Inhibition of nitrocefin cleavage by purified enzyme (Ki); type: biochemical; settings: nitrocefin reporter substrate; 10 min preincubation; read-out: Ki CTX-M-14, NCF
Description: (§1) Ki values of inhibition of purified class A, C and D enzymes were determined spectrophotometrically using nitrocefin as reporter substrate. Purified enzymes were mixed with various concentrations of inhibitors in reaction buffer and incubated for 10 min at room temperature. Nitrocefin was added and substrate cleavage profiles were recorded at 490 nm every 10 sec for 10 min.

SHV-12 = SHV-12 (Klebsiella pneumoniae, UniProt P0AD64, E235K/G234S/L31Q); test: as above; type: biochemical
Description: as §1

CMY-2 = CMY-2 (Klebsiella pneumoniae, UniProt Q48434); test: as above; type: biochemical; settings: nitrocefin reporter substrate; 10 min preincubation; read-out: Ki CMY-2, NCF
Description: (§2) Ki values of inhibition of purified class A, C and D enzymes were determined spectrophotometrically using nitrocefin as reporter substrate. Purified enzymes were mixed with various concentrations of inhibitors in reaction buffer and incubated for 10 min at room temperature. Nitrocefin was added and substrate cleavage profiles were recorded at 490 nm every 10 sec for 10 min. These experiments confirmed that the described compounds are inhibitors with a broad-spectrum of activity towards various β-lactamases.

KPC-2 = KPC-2 (Klebsiella pneumoniae, UniProt Q9F663); test: as above; type: biochemical; settings: nitrocefin reporter substrate; 10 min preincubation; read-out: Ki KPC-2, NCF
Description: as §2

OXA-48 = OXA-48 (Klebsiella pneumoniae, UniProt Q6XEC0); test: as above; type: biochemical; settings: nitrocefin reporter substrate; 10 min preincubation; read-out: Ki OXA-48, NCF
Description: as §2

P99 = P99 (Enterobacter cloacae, UniProt P05364); test: biochemical; settings: nitrocefin reporter substrate; 10 min preincubation; read-out: Ki P99, NCF
Description: as §1

PAM1032/KPC-2 = test: Biapenem potentiation MPC64, efflux proficient strain; type: cell-based, Pseudomonas aeruginosa; design: unit not given here; settings: efflux proficient (MexAB-OprM overexpressed); decrease biapenem MIC 64-fold, 32 to 0.5 μg/ml
Description: (§3) Efflux of BLIs from Pseudomonas aeruginosa by the MexAB-OprM efflux pump was also evaluated. The plasmid expressing the gene encoding KPC-2 was introduced into two strains of P. aeruginosa, PAM1032 and PAM1154 that overexpressed or lacked MexAB-OprM, respectively. Due to expression of KPC-2 both strains became resistant to biapenem. […] Potency of BLIs to potentiate biapenem in these strains was determined. […] The ratio of MPC64 values for each BLI in PAM1032/KPC-2 (efflux proficient) and PAM1154/KPC-2 (efflux deficient) was determined to generate the Efflux Index (EI).

PAM1154/KPC-2 = test: Biapenem potentiation MPC64, efflux deficient strain; type: cell-based, Pseudomonas aeruginosa; design: unit not given here; settings: efflux deficient (lacks MexAB-OprM); decrease biapenem MIC 64-fold, 32 to 0.5 μg/ml
Description: as §3

Oral pharmacokinetics = type: in vivo; settings: rat, plasma, rats, n=3, read-out: Range of % Oral Bioavailability
Description: Several compounds were tested for their oral pharmacokinetics. Rats (n=3 per compound) were administered a single oral dose. Oral doses were administered as a bolus. Plasma (˜0.3 mL) samples were collected from each rat at designated time points up to 24 hours. Blood samples were centrifuged within 5 min of collection at 12000 g for 5 min to obtain plasma. The plasma samples were stored at −80° C. until analyzed. Data were analyzed using WinNonlin.

KP1004 (KPC-2) [16] = test: Biapenem potentiation (MPC@1); settings: biapenem 1 μg/mL
KP1086 (OXA-48) = test: Biapenem potentiation (MPC@1); settings: biapenem 1 μg/mL

Sequence of P99 (P05364 21-381): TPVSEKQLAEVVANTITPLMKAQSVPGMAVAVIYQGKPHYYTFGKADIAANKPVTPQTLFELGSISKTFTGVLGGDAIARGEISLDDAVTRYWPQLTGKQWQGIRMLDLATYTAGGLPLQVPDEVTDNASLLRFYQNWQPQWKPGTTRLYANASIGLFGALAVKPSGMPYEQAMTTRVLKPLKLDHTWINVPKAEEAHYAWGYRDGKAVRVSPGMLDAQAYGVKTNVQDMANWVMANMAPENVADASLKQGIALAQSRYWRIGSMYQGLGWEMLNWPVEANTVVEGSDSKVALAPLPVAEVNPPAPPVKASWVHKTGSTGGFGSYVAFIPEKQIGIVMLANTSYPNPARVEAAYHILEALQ
Sequence of CTX-M-14 (Q9L5C7 29-291): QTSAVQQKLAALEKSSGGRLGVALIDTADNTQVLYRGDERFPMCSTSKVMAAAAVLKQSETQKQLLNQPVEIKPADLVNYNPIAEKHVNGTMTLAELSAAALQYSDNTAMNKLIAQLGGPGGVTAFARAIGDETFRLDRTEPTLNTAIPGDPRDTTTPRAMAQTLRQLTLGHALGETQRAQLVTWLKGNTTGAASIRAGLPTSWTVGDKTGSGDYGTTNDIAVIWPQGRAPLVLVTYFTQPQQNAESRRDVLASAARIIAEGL
Sequence of KPC-2 (Q9F663 25-293, looked up, species assumed): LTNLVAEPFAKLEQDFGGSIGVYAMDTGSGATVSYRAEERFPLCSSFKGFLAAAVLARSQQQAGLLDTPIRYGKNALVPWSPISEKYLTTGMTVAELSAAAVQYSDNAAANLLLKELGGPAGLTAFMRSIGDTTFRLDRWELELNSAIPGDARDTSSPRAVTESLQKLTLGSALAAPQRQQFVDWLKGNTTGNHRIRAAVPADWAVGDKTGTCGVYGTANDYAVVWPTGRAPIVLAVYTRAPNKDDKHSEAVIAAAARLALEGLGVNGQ
Sequence of CMY-2 (Q48434 21-381, species assumed): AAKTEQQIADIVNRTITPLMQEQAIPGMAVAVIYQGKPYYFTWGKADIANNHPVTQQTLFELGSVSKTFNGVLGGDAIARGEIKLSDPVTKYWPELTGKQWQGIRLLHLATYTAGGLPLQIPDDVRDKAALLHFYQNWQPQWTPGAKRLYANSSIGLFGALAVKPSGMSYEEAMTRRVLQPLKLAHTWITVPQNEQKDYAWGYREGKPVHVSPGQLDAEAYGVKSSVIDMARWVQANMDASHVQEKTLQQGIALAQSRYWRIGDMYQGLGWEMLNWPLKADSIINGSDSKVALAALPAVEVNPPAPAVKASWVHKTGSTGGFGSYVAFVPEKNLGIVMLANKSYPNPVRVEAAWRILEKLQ
Sequence of OXA-48 (Q6XEC0 23-265, looked up, species assumed): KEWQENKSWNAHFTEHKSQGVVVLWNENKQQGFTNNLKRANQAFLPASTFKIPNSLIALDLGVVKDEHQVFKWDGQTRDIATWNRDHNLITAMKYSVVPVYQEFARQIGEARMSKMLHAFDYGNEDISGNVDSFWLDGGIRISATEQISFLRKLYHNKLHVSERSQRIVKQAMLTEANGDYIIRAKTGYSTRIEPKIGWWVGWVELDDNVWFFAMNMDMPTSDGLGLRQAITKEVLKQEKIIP
Sequence of SHV-12 (P0AD64 22-286 L31Q/G234S/E235K): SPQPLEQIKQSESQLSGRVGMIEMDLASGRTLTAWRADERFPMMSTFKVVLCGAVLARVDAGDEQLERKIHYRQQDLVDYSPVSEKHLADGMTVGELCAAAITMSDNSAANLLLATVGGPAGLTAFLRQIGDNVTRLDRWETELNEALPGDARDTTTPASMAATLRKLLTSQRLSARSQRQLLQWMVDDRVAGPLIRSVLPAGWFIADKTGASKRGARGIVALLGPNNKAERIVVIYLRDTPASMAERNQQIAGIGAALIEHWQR

SMILES | MPC@4 aztreonam potentiation (KP1005 (CTX-M-14) [1]) | MPC@4 aztreonam potentiation (KP1009 (CTX-M-15) [2]) | MPC@4 aztreonam potentiation (ec308 (SHV-5) [3]) | MPC@4 aztreonam potentiation (KP1010 (SHV-12) [4]) | MPC@4 aztreonam potentiation (ec302 (TEM-10) [5]) | MPC@4 aztreonam potentiation (KP1004 (KPC-2) [6]) | MPC@4 aztreonam potentiation (ECL1002 [7]) | MPC@4 aztreonam potentiation (EC1010 (CMY-6) [8]) | MPC@4 tigemonam potentiation (KP1005 (CTX-M-14) [9]) | MPC@4 tigemonam potentiation (KP1009 (CTX-M-15) [10]) | MPC@4 tigemonam potentiation (ec308 (SHV-5) [11]) | MPC@4 tigemonam potentiation (KP1010 (SHV-12) [12]) | MPC@4 tigemonam potentiation (ec302 (TEM-10) [13]) | MPC@4 tigemonam potentiation (ECL1002 [14]) | MPC@4 tigemonam potentiation (EC1010 (CMY-6) [15]) | Ki (CTX-M-14) [nM] | Ki (SHV-12) [nM] | Ki (CMY-2) [nM] | Ki (KPC-2) [nM] | Ki (OXA-48) [nM] | further results
CSCC(=O)N[C@H]1CC=C[C@@H]2CC(=O)OB1O2 [Compound 1, 2-(METHYLTHIO)-N-((2R,6S)-8-OXO-9,10-DIOXA-1-BORABICYCLO[4.3.1]DEC-4-EN-2-YL)ACETAMIDE] | X (X = MPC@4 ≤ 5 μg/mL) | X (X = MPC@4 ≤ 5 μg/mL) | X (X = MPC@4 ≤ 5 μg/mL) | X (X = MPC@4 ≤ 5 μg/mL) | X (X = MPC@4 ≤ 5 μg/mL) | X (X = MPC@4 ≤ 5 μg/mL) | X (X = MPC@4 ≤ 5 μg/mL) | X (X = MPC@4 ≤ 5 μg/mL) | X (X = MPC@4 ≤ 5 μg/mL) | X (key: X = MPC@4 ≤ 5 μg/mL; Y = 5 μg/mL < MPC@4 ≤ 20 μg/mL; Z = MPC@4 > 20 μg/mL) | X (X = MPC@4 ≤ 5 μg/mL) | X (key: X = MPC@4 ≤ 5 μg/mL; Y = 5 μg/mL < MPC@4 ≤ 20 μg/mL; Z = MPC@4 > 20 μg/mL) | Y (Y = 5 μg/mL < MPC@4 ≤ 20 μg/mL) | X (X = MPC@4 ≤ 5 μg/mL) | X (X = MPC@4 ≤ 5 μg/mL) | < 100 | < 100 | < 100 | 100 to 1000 | < 100 | Ki (P99): < 100 nM; PAM1032/KPC-2 Biapenem MPC64 (PAM1032/KPC-2): 80; PAM1154/KPC-2 Biapenem MPC64 (PAM1154/KPC-2): 5; bioavailability (Oral pharmacokinetics; single oral dose 30 mg/kg): 44 to 61%; bioavailability (Oral pharmacokinetics; single oral dose 100 mg/kg): 63 to 74%; bioavailability (Oral pharmacokinetics; single oral dose 300 mg/kg): 61 to 77%; MPC@1 biapenem potentiation (KP1004 (KPC-2) [16]): X (X = MPC@1 ≤ 5 μg/mL); MPC@1 biapenem potentiation (KP1086 (OXA-48)): Z (Z = MPC@1 > 20 μg/mL)
Cn1nnnc1SCC(=O)N[C@H]1CC=C[C@@H]2CC(=O)OB1O2 [Compound 4, 2-(1-METHYL-1H-TETRAZOL-5-YLTHIO)-N-((2R,6S)-8-OXO-9,10-DIOXA-1-BORABICYCLO[4.3.1]DEC-4-EN-2-YL)ACETAMIDE] | X (X = MPC@4 ≤ 5 μg/mL) | X (X = MPC@4 ≤ 5 μg/mL) | X (X = MPC@4 ≤ 5 μg/mL) | X (X = MPC@4 ≤ 5 μg/mL) | X (X = MPC@4 ≤ 5 μg/mL) | X (X = MPC@4 ≤ 5 μg/mL) | X (X = MPC@4 ≤ 5 μg/mL) | X (X = MPC@4 ≤ 5 μg/mL) | Y (Y = 5 μg/mL < MPC@4 ≤ 20 μg/mL) | X (key: X = MPC@4 ≤ 5 μg/mL; Y = 5 μg/mL < MPC@4 ≤ 20 μg/mL; Z = MPC@4 > 20 μg/mL) | X (X = MPC@4 ≤ 5 μg/mL) | X (key: X = MPC@4 ≤ 5 μg/mL; Y = 5 μg/mL < MPC@4 ≤ 20 μg/mL; Z = MPC@4 > 20 μg/mL) | Y (Y = 5 μg/mL < MPC@4 ≤ 20 μg/mL) | X (X = MPC@4 ≤ 5 μg/mL) | X (X = MPC@4 ≤ 5 μg/mL) | < 100 | < 100 | < 100 | 100 to 1000 | < 100 | Ki (P99): < 100 nM; PAM1032/KPC-2 Biapenem MPC64 (PAM1032/KPC-2): >80; PAM1154/KPC-2 Biapenem MPC64 (PAM1154/KPC-2): 10; bioavailability (Oral pharmacokinetics; single oral dose 50 mg/kg): 3.2 to 4.6%; MPC@1 biapenem potentiation (KP1004 (KPC-2) [16]): X (X = MPC@1 ≤ 5 μg/mL); MPC@1 biapenem potentiation (KP1086 (OXA-48)): Z (Z = MPC@1 > 20 μg/mL)
Nc1nnc(SCC(=O)N[C@H]2CC=C[C@@H]3CC(=O)OB2O3)s1 [Compound 6, 2-(5-AMINO-1,3,4-THIADIAZOL-2-YLTHIO)-N-((2R,6S)-8-OXO-9,10-DIOXA-1-BORABICYCLO[4.3.1]DEC-4-EN-2-YL)ACETAMIDE] | X (X = MPC@4 ≤ 5 μg/mL) | X (X = MPC@4 ≤ 5 μg/mL) | X (X = MPC@4 ≤ 5 μg/mL) | X (X = MPC@4 ≤ 5 μg/mL) | X (X = MPC@4 ≤ 5 μg/mL) | X (X = MPC@4 ≤ 5 μg/mL) | X (X = MPC@4 ≤ 5 μg/mL) | X (X = MPC@4 ≤ 5 μg/mL) | X (X = MPC@4 ≤ 5 μg/mL) | X (key: X = MPC@4 ≤ 5 μg/mL; Y = 5 μg/mL < MPC@4 ≤ 20 μg/mL; Z = MPC@4 > 20 μg/mL) | X (X = MPC@4 ≤ 5 μg/mL) | X (key: X = MPC@4 ≤ 5 μg/mL; Y = 5 μg/mL < MPC@4 ≤ 20 μg/mL; Z = MPC@4 > 20 μg/mL) | Y (Y = 5 μg/mL < MPC@4 ≤ 20 μg/mL) | X (X = MPC@4 ≤ 5 μg/mL) | X (X = MPC@4 ≤ 5 μg/mL) | < 100 | < 100 | < 100 | 100 to 1000 | 100 to 1000 | Ki (P99): < 100 nM; PAM1032/KPC-2 Biapenem MPC64 (PAM1032/KPC-2): 40; PAM1154/KPC-2 Biapenem MPC64 (PAM1154/KPC-2): 5; bioavailability (Oral pharmacokinetics; single oral dose 30 mg/kg): 2 to 4%; MPC@1 biapenem potentiation (KP1004 (KPC-2) [16]): X (X = MPC@1 ≤ 5 μg/mL); MPC@1 biapenem potentiation (KP1086 (OXA-48)): Z (Z = MPC@1 > 20 μg/mL)
